Article PMC5642598, “Histone deacetylase inhibitor thailandepsin-A activates Notch signaling and suppresses neuroendocrine cancer cell growth in vivo” (Oncotarget, 2017)

Molecular target: T1, HDAC1 (Homo sapiens, UniProt Q13547)
T1 construct: HDAC1-NanoLuc fusion protein
Experiment: NanoBRET target engagement in live TT cells, competitive displacement of HDAC Tracer-01
Assay type: cell-based
From the text: NanoBRET target engagement in live TT cells, competitive displacement of HDAC Tracer-01 on HDAC1 | TDP-A dose-dependently attenuated BRET from intracellular HDAC1-NanoLuc fusion protein (Figure 1B) in low nanomolar concentrations

T1 sequence (Q13547 whole entry, the tested form may be a part): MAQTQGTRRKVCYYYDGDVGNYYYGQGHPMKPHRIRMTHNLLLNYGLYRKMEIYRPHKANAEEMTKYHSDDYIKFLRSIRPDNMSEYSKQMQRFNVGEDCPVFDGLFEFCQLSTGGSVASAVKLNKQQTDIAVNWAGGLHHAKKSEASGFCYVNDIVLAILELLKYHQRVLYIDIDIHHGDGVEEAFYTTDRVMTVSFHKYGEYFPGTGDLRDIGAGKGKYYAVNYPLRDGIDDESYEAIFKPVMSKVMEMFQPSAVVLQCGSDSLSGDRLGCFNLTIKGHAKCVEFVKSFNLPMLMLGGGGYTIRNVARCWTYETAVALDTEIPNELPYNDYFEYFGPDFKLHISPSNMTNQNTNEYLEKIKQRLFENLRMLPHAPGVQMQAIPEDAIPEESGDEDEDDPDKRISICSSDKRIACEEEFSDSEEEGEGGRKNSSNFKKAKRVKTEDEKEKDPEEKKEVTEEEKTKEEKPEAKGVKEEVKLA

EC50: 6.8 nM
SMILES: CC[C@H](C)[C@H]1NC(=O)[C@H]2CSSCC/C=C/[C@H](CC(=O)N[C@H](CCSC)C(=O)N2)OC(=O)C[C@@H]1O [TDP-A, thailandepsin A]
